According to ChEMBL document CHEMBL4304773, “Nitroimidazole-containing compounds and their antibacterial and antitubercular activities” (2019):
In brackets after ≈: the same amount, converted by molar mass. Each block holds one compound with its values, some of them ahead of it.

Legend:
Type in all cases: functional
Escherichia coli [1] = experiment: Antibacterial activity against Escherichia coli infected in mouse
Staphylococcus aureus [2] = experiment: Antibacterial activity against Staphylococcus aureus
Streptococcus pyogenes = experiment: Antibacterial activity against Streptococcus pyogenes
Bacillus subtilis = experiment: Antibacterial activity against Bacillus subtilis ATCC 530 after 24 hrs by NCCLS method; conditions: ATCC 530, 24 h
Pseudomonas aeruginosa [3] = experiment: Antibacterial activity against Pseudomonas aeruginosa ATCC 27853 after 24 hrs by NCCLS method; conditions: ATCC 27853, 24 h
Escherichia coli [4] = experiment: Antibacterial activity against Escherichia coli ATCC 25922 after 24 hrs by NCCLS method; conditions: ATCC 25922, 24 h
Staphylococcus aureus [5] = experiment: Antibacterial activity against Staphylococcus aureus ATCC 25923 after 24 hrs by NCCLS method; conditions: ATCC 25923, 24 h
Staphylococcus aureus [6] = experiment: Antibacterial activity against Staphylococcus aureus ATCC 25923
Escherichia coli [7] = experiment: Antibacterial activity against Escherichia coli
Escherichia coli [8] = experiment: Antibacterial activity against Escherichia coli ATCC 25922
Pseudomonas aeruginosa [9] = experiment: Antibacterial activity against Pseudomonas aeruginosa
Enterococcus faecalis = experiment: Antibacterial activity against Enterococcus faecalis
Staphylococcus aureus [10] = experiment: Antibacterial activity against Staphylococcus aureus ATCC 29213
Pseudomonas aeruginosa [11] = experiment: Antibacterial activity against Pseudomonas aeruginosa ATCC 27853
Klebsiella pneumoniae = experiment: Antibacterial activity against Klebsiella pneumoniae
Staphylococcus aureus [12] = experiment: Antibacterial activity against methicillin-resistant Staphylococcus aureus N315
Acinetobacter baumannii = experiment: Antibacterial activity against Acinetobacter baumannii

SMILES: CCn1cc(C(=O)OC)c(=O)c2cc(F)c(N3CCN(CCn4c([N+](=O)[O-])cnc4C)CC3)nc21
ED50 (Escherichia coli [1]): 3.5 to 13.2 mg/kg

MIC (Staphylococcus aureus [2]): 184 to 2890 µM (≈ 63.7 to 1000 µg/mL)
MIC (Streptococcus pyogenes): 184 to 2890 µM (≈ 63.7 to 1000 µg/mL)
SMILES: Cc1nc([N+](=O)[O-])cn1Cc1nn(CNc2ccccc2)c(=S)o1

MIC (Bacillus subtilis): 3.12 to 50 µg/mL (≈ 6.4 to 103 µM)
MIC (Pseudomonas aeruginosa [3]): 3.12 to 50 µg/mL (≈ 6.4 to 103 µM)
MIC (Escherichia coli [4]): 3.12 to 50 µg/mL (≈ 6.4 to 103 µM)
MIC (Staphylococcus aureus [5]): 3.12 to 50 µg/mL (≈ 6.4 to 103 µM)
SMILES: Cc1ccc(Oc2c(/C=N/NC(=O)Cn3c([N+](=O)[O-])cnc3C)c(C)nn2-c2ccc(C)cc2)cc1

SMILES: CCOC(=O)c1cn(C2CC2)c2cc(N3CCN(CCn4c([N+](=O)[O-])cnc4C)CC3)c(F)cc2c1=O
ED50 (Escherichia coli [1]): 3.5 to 13.2 mg/kg

SMILES: C#CCN1CCN(c2ccc3c4c(cccc24)C(=O)N(CC(O)Cn2c([N+](=O)[O-])cnc2C)C3=O)CC1 (centres undefined)
MIC (Staphylococcus aureus [6]): 13 to 1020 µM (≈ 6.53 to 513 µg/mL)
MIC (Escherichia coli [7]): 13 to 1020 µM (≈ 6.53 to 513 µg/mL)
MIC (Escherichia coli [8]): 13 to 1020 µM (≈ 6.53 to 513 µg/mL)
MIC (Pseudomonas aeruginosa [9]): 13 to 1020 µM (≈ 6.53 to 513 µg/mL)
MIC (Enterococcus faecalis): 13 to 1020 µM (≈ 6.53 to 513 µg/mL)
MIC (Staphylococcus aureus [10]): 13 to 1020 µM (≈ 6.53 to 513 µg/mL)
MIC (Pseudomonas aeruginosa [11]): 13 to 1020 µM (≈ 6.53 to 513 µg/mL)
MIC (Klebsiella pneumoniae): 13 to 1020 µM (≈ 6.53 to 513 µg/mL)
MIC (Staphylococcus aureus [12]): 13 to 1020 µM (≈ 6.53 to 513 µg/mL)
MIC (Acinetobacter baumannii): 13 to 1020 µM (≈ 6.53 to 513 µg/mL)

SMILES: CCn1cc(C(=O)O)c(=O)c2cc(F)c(N3CCN(CCn4c([N+](=O)[O-])cnc4C)CC3)nc21
ED50 (Escherichia coli [1]): 3.5 to 13.2 mg/kg

MIC (Bacillus subtilis): 3.12 to 50 µg/mL (≈ 6.37 to 102 µM)
MIC (Pseudomonas aeruginosa [3]): 3.12 to 50 µg/mL (≈ 6.37 to 102 µM)
MIC (Escherichia coli [4]): 3.12 to 50 µg/mL (≈ 6.37 to 102 µM)
MIC (Staphylococcus aureus [5]): 3.12 to 50 µg/mL (≈ 6.37 to 102 µM)
SMILES: COc1ccc(Oc2c(/C=N/NC(=O)Cn3c([N+](=O)[O-])cnc3C)c(C)nn2-c2ccccc2)cc1

MIC (Bacillus subtilis): 3.12 to 50 µg/mL (≈ 6.35 to 102 µM)
MIC (Pseudomonas aeruginosa [3]): 3.12 to 50 µg/mL (≈ 6.35 to 102 µM)
MIC (Escherichia coli [4]): 3.12 to 50 µg/mL (≈ 6.35 to 102 µM)
MIC (Staphylococcus aureus [5]): 3.12 to 50 µg/mL (≈ 6.35 to 102 µM)
SMILES: Cc1ccc(-n2nc(C)c(/C=N/NC(=O)Cn3c([N+](=O)[O-])cnc3C)c2Oc2ccc(F)cc2)cc1

SMILES: CCCCCCN1CCN(c2ccc3c4c(cccc24)C(=O)N(CC(O)Cn2c([N+](=O)[O-])cnc2C)C3=O)CC1 (centres undefined)
MIC (Staphylococcus aureus [6]): 13 to 1020 µM (≈ 7.13 to 560 µg/mL)
MIC (Escherichia coli [7]): 13 to 1020 µM (≈ 7.13 to 560 µg/mL)
MIC (Escherichia coli [8]): 13 to 1020 µM (≈ 7.13 to 560 µg/mL)
MIC (Pseudomonas aeruginosa [9]): 13 to 1020 µM (≈ 7.13 to 560 µg/mL)
MIC (Enterococcus faecalis): 13 to 1020 µM (≈ 7.13 to 560 µg/mL)
MIC (Staphylococcus aureus [10]): 13 to 1020 µM (≈ 7.13 to 560 µg/mL)
MIC (Pseudomonas aeruginosa [11]): 13 to 1020 µM (≈ 7.13 to 560 µg/mL)
MIC (Klebsiella pneumoniae): 13 to 1020 µM (≈ 7.13 to 560 µg/mL)
MIC (Staphylococcus aureus [12]): 13 to 1020 µM (≈ 7.13 to 560 µg/mL)
MIC (Acinetobacter baumannii): 13 to 1020 µM (≈ 7.13 to 560 µg/mL)

SMILES: CCCCCCCCN1CCN(c2ccc3c4c(cccc24)C(=O)N(CC(O)Cn2c([N+](=O)[O-])cnc2C)C3=O)CC1 (centres undefined)
MIC (Staphylococcus aureus [6]): 13 to 1020 µM (≈ 7.5 to 588 µg/mL)
MIC (Escherichia coli [7]): 13 to 1020 µM (≈ 7.5 to 588 µg/mL)
MIC (Escherichia coli [8]): 13 to 1020 µM (≈ 7.5 to 588 µg/mL)
MIC (Pseudomonas aeruginosa [9]): 13 to 1020 µM (≈ 7.5 to 588 µg/mL)
MIC (Enterococcus faecalis): 13 to 1020 µM (≈ 7.5 to 588 µg/mL)
MIC (Staphylococcus aureus [10]): 13 to 1020 µM (≈ 7.5 to 588 µg/mL)
MIC (Pseudomonas aeruginosa [11]): 13 to 1020 µM (≈ 7.5 to 588 µg/mL)
MIC (Klebsiella pneumoniae): 13 to 1020 µM (≈ 7.5 to 588 µg/mL)
MIC (Staphylococcus aureus [12]): 13 to 1020 µM (≈ 7.5 to 588 µg/mL)
MIC (Acinetobacter baumannii): 13 to 1020 µM (≈ 7.5 to 588 µg/mL)

SMILES: CCCCCCCCCCCCN1CCN(c2ccc3c4c(cccc24)C(=O)N(CC(O)Cn2c([N+](=O)[O-])cnc2C)C3=O)CC1 (centres undefined)
MIC (Staphylococcus aureus [6]): 13 to 1020 µM (≈ 8.23 to 645 µg/mL)
MIC (Escherichia coli [7]): 13 to 1020 µM (≈ 8.23 to 645 µg/mL)
MIC (Escherichia coli [8]): 13 to 1020 µM (≈ 8.23 to 645 µg/mL)
MIC (Pseudomonas aeruginosa [9]): 13 to 1020 µM (≈ 8.23 to 645 µg/mL)
MIC (Enterococcus faecalis): 13 to 1020 µM (≈ 8.23 to 645 µg/mL)
MIC (Staphylococcus aureus [10]): 13 to 1020 µM (≈ 8.23 to 645 µg/mL)
MIC (Pseudomonas aeruginosa [11]): 13 to 1020 µM (≈ 8.23 to 645 µg/mL)
MIC (Klebsiella pneumoniae): 13 to 1020 µM (≈ 8.23 to 645 µg/mL)
MIC (Staphylococcus aureus [12]): 13 to 1020 µM (≈ 8.23 to 645 µg/mL)
MIC (Acinetobacter baumannii): 13 to 1020 µM (≈ 8.23 to 645 µg/mL)

SMILES: Cc1ncc([N+](=O)[O-])n1CCN1CCN(c2cc3c(cc2F)c(=O)c(C(=O)O)cn3C2CC2)CC1
ED50 (Escherichia coli [1]): 2.56 to 3.88 mg/kg

MIC (Bacillus subtilis): 3.12 to 50 µg/mL (≈ 6.32 to 101 µM)
MIC (Pseudomonas aeruginosa [3]): 3.12 to 50 µg/mL (≈ 6.32 to 101 µM)
MIC (Escherichia coli [4]): 3.12 to 50 µg/mL (≈ 6.32 to 101 µM)
MIC (Staphylococcus aureus [5]): 3.12 to 50 µg/mL (≈ 6.32 to 101 µM)
SMILES: Cc1nn(-c2ccccc2)c(Oc2ccc(Cl)cc2)c1/C=N/NC(=O)Cn1c([N+](=O)[O-])cnc1C

MIC (Staphylococcus aureus [2]): 184 to 2890 µM (≈ 68.9 to 1080 µg/mL)
MIC (Streptococcus pyogenes): 184 to 2890 µM (≈ 68.9 to 1080 µg/mL)
SMILES: CCc1ccc(NCn2nc(Cn3cc([N+](=O)[O-])nc3C)oc2=S)cc1

MIC (Bacillus subtilis): 1.56 to 3.12 µg/mL (≈ 3.23 to 6.45 µM)
MIC (Pseudomonas aeruginosa [3]): 1.56 to 3.12 µg/mL (≈ 3.23 to 6.45 µM)
MIC (Escherichia coli [4]): 1.56 to 3.12 µg/mL (≈ 3.23 to 6.45 µM)
MIC (Staphylococcus aureus [5]): 1.56 to 3.12 µg/mL (≈ 3.23 to 6.45 µM)
SMILES: NC[C@H]1O[C@H](O[C@H]2[C@H](O)[C@@H](O[C@H]3O[C@H](CO)[C@@H](O)[C@H](N)[C@H]3O)[C@H](N)C[C@@H]2N)[C@H](N)[C@@H](O)[C@@H]1O [BEKANAMYCIN]

SMILES: NC1CCN(c2c(F)cc3c(=O)c(C(=O)O)cn(C4CC4)c3c2Cl)C1 (centres undefined) [CLINAFLOXACIN]
MIC (Staphylococcus aureus [6]): 5 to 88 µM (≈ 1.83 to 32.2 µg/mL)
MIC (Escherichia coli [7]): 5 to 88 µM (≈ 1.83 to 32.2 µg/mL)
MIC (Escherichia coli [8]): 5 to 88 µM (≈ 1.83 to 32.2 µg/mL)
MIC (Pseudomonas aeruginosa [9]): 5 to 88 µM (≈ 1.83 to 32.2 µg/mL)
MIC (Enterococcus faecalis): 5 to 88 µM (≈ 1.83 to 32.2 µg/mL)
MIC (Staphylococcus aureus [10]): 5 to 88 µM (≈ 1.83 to 32.2 µg/mL)
MIC (Pseudomonas aeruginosa [11]): 5 to 88 µM (≈ 1.83 to 32.2 µg/mL)
MIC (Klebsiella pneumoniae): 5 to 88 µM (≈ 1.83 to 32.2 µg/mL)
MIC (Staphylococcus aureus [12]): 5 to 88 µM (≈ 1.83 to 32.2 µg/mL)
MIC (Acinetobacter baumannii): 5 to 88 µM (≈ 1.83 to 32.2 µg/mL)

SMILES: CCn1cc(C(=O)O)c(=O)c2cc(F)c(N3CCNCC3)nc21 [ENOXACIN]
ED50 (Escherichia coli [1]): 4.22 mg/kg
